Test: gradient 5% acetonitrile 3 min, to 50% in 2 min, to 85% in 15 min, held 3 min, 100 µL/min
Settings: column: Zorbax Extend-C18 2.1 x 50 mm; eluents: water / acetonitrile, 0.1% formic acid
Summary of the method: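 In both positive and negative ionization mode, a quadrupole time-of-flight mass spectrometer coupled to HPLC analyzed pure standards run in mixtures of ~100 molecules. The Zorbax Extend-C18 column (2.1 × 50 mm, 1.8 μm) was operated at 100 μL/min with water and acetonitrile, each containing 0.1% formic acid. The dead volume was 40 μL and the dwell volume 900 μL. Retention time came from adduct peaks that were computationally picked and individually inspected by hand.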

| Structure (SMILES) | RP-LC retention time [s] |
| --- | --- |
| Cc1ccc(S(=O)(=O)N2CCCC(Cn3cnc4cccnc43)C2)cc1C (stereo not given) | 827 |
| Cc1csc(NC(=O)CSc2ccc(-c3cccs3)nn2)n1 | 750 |
| O=C(Nc1ccc2c(c1)OCCO2)c1cccc(-c2cnc(N3CCCC3)nc2)c1 | 845 |
| CSc1ccccc1CN1CCC(CNC(=O)C(=O)NCc2cccs2)CC1 | 595 |
| O=C(Nc1cnc(N2CCCC2)nc1)c1ccc(F)cc1 | 710 |
| Clc1cccc(-c2nc(-c3ccc4nncn4c3)no2)c1 | 921 |
| CCCOc1nccnc1N1CCC(NC(=O)c2ccoc2)C1 (stereo not given) | 585 |
| O=C(Cc1ccccc1F)NC1CCN(c2cc(-c3cccs3)[nH]n2)C1 (stereo not given) | 705 |
| O=C(NCc1ccc(Br)cc1)C1CCCN(c2nccnc2Sc2ccccc2)C1 (stereo not given) | 1110 |
| CCOc1ccc(N(Cc2nc3nc(C)cc(C)n3n2)C(=O)c2ccco2)cc1 | 754 |
| Cc1ccc2nc(-c3ccccc3O)c(Nc3ccccc3C)n2c1 | 751 |
| O=C(Nc1ccc2c(c1)CNCCO2)C1CC1 | 527 |
| COc1ccc(C(C)NC(=O)C2CCN(c3cnc4nccnc4c3)CC2)cc1OC (stereo not given) | 664 |
| O=C(Cn1cnc2ccccc21)Nc1nc2c(s1)C(=O)CCC2 | 558 |
| CN(C)C[C@@H]1CN(c2ncccn2)C[C@H]1NS(=O)(=O)c1ccc(C#N)cc1 | 589 |
| Cc1nncn1C1CN(C(=O)c2cc3ccccc3[nH]2)C1 | 623 |
| O=C(N[C@@H](COc1ccc2[nH]c(=O)[nH]c2c1)c1ccccc1)c1cccn(Cc2ccc(F)c(F)c2)c1=O | 893 |
| COC(=O)CN1C(=O)C2CCCN2C(=O)c2ccccc21 (stereo not given) | 634 |
| CC(=O)N1CCCc2cc(S(N)(=O)=O)ccc21 | 559 |
| O=C(CCc1c(-c2ccc(Cl)cc2)nc2ccccn12)Nc1cccc(C(F)(F)F)c1 | 782 |
| Cc1cc(-c2nnc(C3CC3)o2)c(C)n1CC(=O)NCc1cc(F)cc(F)c1 | 813 |
| Cc1cc(C(=O)O)c2cc(F)ccc2n1 | 486 |
| COc1ccc(-c2noc(Cn3ccnc3)n2)cc1OC | 586 |

| Structure (SMILES) | RP-LC retention time [s] |
| --- | --- |
| Cc1ccc(-n2nc(C(=O)N3CCN(c4ccccn4)CC3)c(=O)n(C)c2=O)cc1 | 625 |
| COc1cccc(CN2CC=C(C(=O)N3CCN(c4ccccc4)CC3)CC2)c1 | 664 |
| CCN(CC)C(=O)N1CCCN(S(C)(=O)=O)C(c2ccccc2)CC(=O)NCC1 (stereo not given) | 700 |
| COc1ccc(-c2noc(-c3ccc(=O)n(Cc4ccccn4)c3)n2)cc1OC | 743 |
| Cc1cccc(N2CCN(c3cc(C(=O)O)c4cc(NC(=O)C(C)C)ccc4n3)CC2)c1C | 732 |
| COC(=O)c1ccc(Cl)cc1NC(=O)N1CCN(Cc2nc3cc(Cl)ccc3o2)CC1 | 1150 |
| Cc1nc2cc(-c3noc(-c4ccc(Br)cc4)n3)ccc2n(C)c1=O | 1180 |
| CC(C)c1ccc(S(=O)(=O)N2CCc3nn(C)c(=O)n3CC2)cc1 | 785 |
| C=CCN1C(=O)COc2ccc(-c3nc(NC(=O)c4ccc(C)cc4)sc3C)cc21 | 1100 |
| Cc1ncc2c(n1)C[C@@H]1CC[C@H]2N1C(=O)NCc1ccccc1 | 642 |
| COc1ccc(-c2cc(C(F)(F)F)n3ncc(C(=O)O)c3n2)cc1 | 822 |
| COc1ccc(Cl)cc1NC(=O)C1CCCN1S(=O)(=O)c1cc2c(cc1C)NC(=O)C(C)O2 (stereo not given) | 909 |
| COc1ccc(-c2noc(C3CCCN3C(=O)c3cccnc3)n2)cc1 (stereo not given) | 725 |
| CCOC(=O)C1CCN(S(=O)(=O)c2cc3n(c2)CCCNC3=O)CC1 | 652 |
| O=C(CCc1nnc2c3cc(-c4ccccc4)nn3ccn12)N1CCN(C(=O)c2ccco2)CC1 | 679 |
| O=C(Cc1nnc(-c2ccc3ncccc3c2)o1)Nc1cccc(C(F)(F)F)c1 | 802 |
| CCN1CCC(N(Cc2cccs2)C(=O)Nc2ccc(C)cc2)CC1 | 667 |
| CCOCc1nc(C2CCCN2C(=O)Nc2ccsc2C(=O)OC)no1 (stereo not given) | 626 |
| CN(C)[C@@H]1CN(C(=O)CCc2c[nH]c3ccccc23)C[C@H]1CO | 573 |
| COC1CN(C2CCN(C(=O)CC(C)C)CC2)C12CCOCC2 (stereo not given) | 579 |
| CN1CC=C(c2noc(CCC(=O)NCc3ccc4c(c3)OCO4)n2)CC1 | 587 |
| CCC(=O)N1CCc2c(C(=O)NCCN3CCc4ccccc4C3)cccc21 | 614 |
| CC1CCC(NC(=O)CN2C(=O)CCCc3cc(S(=O)(=O)N4CCCCC4)ccc32)CC1 (stereo not given) | 945 |

| Structure (SMILES) | RP-LC retention time [s] |
| --- | --- |
| O=C(c1ccco1)N1CCCn2nc(-c3ccncc3)cc2C1 | 560 |
| Cc1cccc(NC(=O)N2CCC(OC3CCN(S(C)(=O)=O)CC3)CC2)c1C | 718 |
| O=C(c1ccoc1)N1CCC2(CC1)N=C(c1cccc(Br)c1)NO2 | 763 |
| COc1ccc(C)cc1NC(=O)N1C[C@H](c2nc(-c3ccncc3)no2)[C@@H](C)C1 | 876 |
| COc1ccc(NC(=O)Cn2nc(N3CCCC3)c3ccccc3c2=O)cc1 | 847 |
| CC1(C)CC(=O)C2=C(C1)Nc1ccccc1N(CC(=O)NCC1CCCO1)C2c1cccs1 (stereo not given) | 754 |
| COc1ccc(C(C)NC(=O)C2CCN(C(=O)c3ncn4c3COC(c3ccccc3)C4)CC2)cc1 (stereo not given) | 754 |
| CCCCNC(=O)c1cn(C)nc1S(=O)(=O)N1CCC(C)CC1 | 938 |
| O=C(C1CCN(Cc2cnn(-c3ccccc3)c2-n2cccc2)CC1)N1CCN(c2ccccc2)CC1 | 750 |
| COc1ccc(NC(=O)Nc2nccn(-c3ccccc3)c2=O)cc1OC | 784 |
| CC(C)(C)CC(=O)N1CC(c2nc(-c3ccccc3)no2)C2(CCOCC2)C1 (stereo not given) | 904 |
| CCOC(=O)c1ccc(NC(=O)N2CCCC2c2cc(C(C)C)no2)cc1 (stereo not given) | 942 |
| Cc1c(C(=O)NCCOc2ccc3c(c2)OCO3)cccc1[N+](=O)[O-] | 778 |
| CC1(C)O[C@@H]2C[C@H]3[C@@H]4C[C@H](F)C5=CC(=O)C=C[C@]5(C)[C@@]4(F)[C@@H](O)C[C@]3(C)[C@]2(C(=O)CO)O1 | 921 |
| Cn1cc(CC(=O)N2CCC(C(=O)NCC(F)(F)F)CC2)c2ccccc21 | 718 |
| O=S(=O)(Nc1ccc(F)cc1)c1cccnc1Nc1ccc(F)cc1 | 1060 |
| CCC(C)NC(=O)Cn1c(=O)ccc2cc(S(=O)(=O)N3CCC(C)CC3)ccc21 (stereo not given) | 833 |
| O=C(NCC1(c2cccs2)CCOCC1)C(=O)NC1CCCC1 | 775 |
| O=C(Nc1ccc2c(c1)OCCO2)N1CC(c2nc(CCOCC3CC3)no2)C1 | 754 |
| CCOc1ccc2c(n1)CCN(C(=O)Nc1ccc(C)c(C)c1)C2 | 900 |
| Cn1cc(-c2cc3n(n2)CCC(=O)N3CCCC(=O)NCC2COCCO2)c2ccccc21 (stereo not given) | 680 |
| O=C(c1ccc(-c2csc(C3CC3)n2)cc1)N1CCCCC1 | 971 |
| CCN1CCCC1CN(CC(=O)N1CCNCC1)S(=O)(=O)c1ccc(Br)cc1 (stereo not given) | 583 |

| Structure (SMILES) | RP-LC retention time [s] |
| --- | --- |
| Cc1ccc(NC(=O)c2cc(C(C)C)n(C3CCS(=O)(=O)C3)n2)cc1 (stereo not given) | 901 |
| CCOC(=O)c1cnc2nc(C)ccc2c1Nc1cc(F)ccc1F | 726 |
| O=C(Cn1nc2n(c1=O)CCCCC2)NCc1ccccc1Cl | 719 |
| CCN1C(=O)c2cccnc2Sc2cc(NC(=O)c3ccc(C)c(F)c3)ccc21 | 896 |
| O=C(NCCc1ccccn1)C1CCc2nc(N3CCCCC3)ncc2C1 (stereo not given) | 575 |
| Cc1ccnn1-c1ccc(SCC(=O)Nc2cccc(F)c2)nn1 | 870 |
| COC(=O)[C@H](CC1C=NC=N1)NCC12CC3CC(CC(C3)C1)C2 (stereo not given in full) | 607 |
| O=C(NCc1csc(C2CCN(C(=O)C3CCCO3)CC2)n1)C1CC1 (stereo not given) | 614 |
| Cn1ncc2c3ccccc3n(CC(=O)N3CCN(C(=O)c4ccco4)CC3)c2c1=O | 668 |
| CC(=O)c1cccc(NC(=O)c2sc3ccccc3c2Cl)c1 | 988 |
| CCc1nc2c(NC(=O)c3ccccc3)cccn2n1 | 792 |
| CCN(CCCNC(=O)C1CCCN(c2ncnc3c2nc2n3CCCCC2)C1)Cc1ccccc1 (stereo not given) | 623 |
| COc1ccccc1Cn1cc(C(=O)c2ccccc2)c(=O)c2cc3c(cc21)OCCO3 | 815 |
| CCc1nc2c(c(=O)n1CC(=O)Nc1ccccc1OC)CN(Cc1ccccc1)CC2 | 650 |
| C[C@@H]1CCC2[C@](C)(CO)[C@@H](O)CC[C@]2(C)[C@]12CCC(CO)(CCO)O2 (stereo not given in full) | 829 |
| CCc1cccc(NC(=O)N2CCC(n3cnnc3C)CC2)c1 | 650 |
| CCCC(=O)N1CCC2(CC1)NC(=O)c1ccccc1O2 | 688 |
| O=C(NCCC1CCN(S(=O)(=O)c2ccccc2)CC1)Nc1cc(F)ccc1F | 960 |
| O=C(NC1CC1)C1CCN(c2nc3ccc(-c4ccsc4)nc3s2)CC1 | 809 |
| CCOc1ccccc1NC(=O)N1CCCC(C)(C(=O)NCc2ccccc2C)C1 (stereo not given) | 860 |
| COc1ccc(C2CCCN2C(=O)c2nn(C)cc2Cl)cc1 (stereo not given) | 770 |

— the METLIN SMRT retention time set (Domingo-Almenara et al. 2019)
